One experiment deals with T1, human GLP-1R receptor (Homo sapiens, UniProt P43220, L260F).
T1 construct: expressed in transfected cells; host or cells: CHO-K1 (ATCC CCL-61)
The experiment in a line: CHOK1 GLP-1R cAMP assay (HTRF). Format: cell-based. The settings on record: CHO-K1 cells stably expressing human GLP-1R. The protocol: A cell line stably expressing the human GLP-1R receptor (NM_002062.5, including the naturally-occurring variant Leu260Phe) in a CHO-K1 (ATCC® CCL-61™) was used for assay.
GLP-1 receptor mediated agonist activity was determined in a cell-based assay measuring cyclic adenosine monophosphate (cAMP) levels in cells using Homogeneous Time-Resolved Fluorescence (HTRF) cAMP detection kit (CisBio catalog #62AM4PEC, cAMP Gs Dynamic range kit). The cAMP detection method is based on a competitive immunoassay, in which cAMP produced by the cells and cAMP labeled with the dye d2 compete for binding to a Europium-Cryptate-labeled anti-cAMP antibody. The specific HTRF signal is inversely proportional to the concentration of cAMP.
Compounds were added to individual well in 384 well-assay plates (Greiner #784076) using an Echo (LabCyte) dispenser from 10 mM stocks. Varying concentration of compounds were added to wells, and DMSO was used to normalize each well to a volume of 100 nL. A dose response curve of GLP-1(7-36)NH2 (Bachem H-6795) was included in each run. 5 μL of cAMP concentration response standards are applied in specified wells in the assay plates. Cryo-preserved cells are thawed and resuspended in assay buffer pre-heated to 37° C. (20 mM 2-[4-(2-hydroxyethyl)piperazin-1-yl]ethanesulfonic acid (HEPES) pH 7.4, lx Hank's Balanced Salt Solution (HBSS, Life Technologies #14065) supplemented with 0.1% (w/v) bovine serum albumin (Sigma, A-7030)). Cells were centrifuged at 250*g for 5 min at rt, and resuspended in room tempered assay buffer to a final density of 0.16*10^6 cell/mL, to deliver 800 cells/well. 5 μL of assay buffer with 1 mM 3-isobutyl-1-methylxanthin (IBMX; Sigma cat I-7018) was dispensed per well in assay plates using a multidrop combi (Thermo Scientific) subsequently 5 μL of cell suspension was distributed to relevant wells in the assay using a multidrop dispenser. Assay plates were incubated 20 min at rt.
Detection reagents, Europium-Cryptate-labeled anti-cAMP antibody and cAMP labeled with the dye d2, are diluted in lysis buffer, provided by the manufacturer. 5 μL of each detection reagent is supplemented to each assay well using a multidrop dispenser. Assay plates are incubated in the dark for at least one h. The HTRF signal is measured using the HTRF module (excitation: 337 nm, emission A: 665 nm and emission B: 620 nm) in Pherastar FSX (BMG Labtech).
Raw data were converted to pM cAMP using the cAMP standard curve included in each run. Converted data were further analyzed in Genedata Screener (Genedata) and EC50 determinations were made from agonist dose-response curves analyzed with a curve fitting program using a 4-parameter logistic dose response equation (Equation y=A+((B−A)/1+((C/x)^D))) where A is no stimulation, B is full stimulation, C is the EC50 and D is the Hill slope). The percent effect was determined relative to a saturating concentration of a full GLP-1R agonist (GLP-1(7-36)NH2 has 100% effect in this assay setup).

A further experiment concerns the target T2, GLP-1R (Homo sapiens, UniProt P43220).
T2 construct: host or cells: EndoC-βH1
Nature of the experiment: EndoC cAMP accumulation assay (HTRF, EndoC-βH1 cells). It is filed as cell-based. The settings on record: EndoC-βH1 human pancreatic β cell line. The text has this: EndoC cAMP Accumulation Assay
A HTRF cAMP assay (cAMP Gs dynamic kit; CisoBio Cat #62AM4PEJ) was used to identify agonists of GLP-1R in a pancreatic insulinoma cell line (EndoC-PH1). […] EndoC-βH1 cells have detectable GLP-1R messenger ribonucleic acid (mRNA) as detected by quantitative polymerase chain reaction (qPCR). […] The EndoC-βH1 cell line is a valid model of human beta cells and applicable for screenings to identify novel drug target candidates (Mol. Metab., 2018, 8, 144-157). CisBio HTRF cAMP kits are based on a competitive immunoassay using cryptate-labelled anti-cAMP antibody and d2-labeled cAMP. The detection kit is intended for the direct quantitative determination of cAMP. The specific signal (i.e. energy transfer) is inversely proportional to the concentration of cAMP in the standard or sample. Test compounds (10 mM in DMSO) were diluted into assay buffer (HBSS (Sigma #H8264) supplemented with 25 mM HEPES (Gibco #15630, pH 7.4), 0.1% BSA (Sigma #A3059) and 0.5 mM IBMX (Sigma #I7018) included fresh on the day of the assay) into 96 well U-bottom plates (Greiner #650201). Diluted compounds were transferred to ECHO source polypropelene plates (Labcyte #P-05525) and dose response curves were dispensed acoustically using ECHO 550 into black shallow-well u-bottom 384-well HTRF Assay Plates (Corning 4514).
Cryovials of EndoC-H1 (supplied at 1×10e^7 cells/vial) were used directly for screening. The cryovials and were removed from N2(l) and thawed rapidly in a 37° C. water bath. The cells were resuspended in assay buffer and centrifuged at 300 g for 5 min. Cells were resuspended in assay buffer at the appropriate concentration, typically at 12e5 cells per mL (3000 cells per well, dependent on cell batch) and 2.5 μL diluted cells were added to all wells of destination plate by Multidrop combi reagent dispenser (Thermofisher). The plates were incubated at rt for 30 min. The assay was stopped by adding 2.5 μL anti-cAMP cryptate solution to all wells and 2.5 μL cAMP-d2 solution (both diluted 1:20 in lysis buffer) to columns 1-22 by Combi drop. A volume of 2.5 μL cAMP-d2 solution was added to wells E23 to P24 and 2.5 μL lysis buffer added to wells A23 to D24 by multichannel pipette. The plates were incubated at rt for 1 h and read on an Envision plate reader using excitation wavelength of 320 nm and emission of 590 nm and 660 nm.
Raw data from Envision is converted to % DeltaF according to the manufacturer's instructions. Dose response curves are analysed via 4-Parameter Logistical Analysis and assay plate Z′ values obtained. Samples are graphed as percentage (%) activation plots compared to GIP (1-42, Bachem H-5645) with assay window defined by negative control as basal cell cAMP levels and positive control are defined by maximum GIP (82.5 nM) signal. GLP-1 (7-36 amide, Bachem H-6795) dose response curve was included on all plates.
(Changes in cAMP serve as a functional read-out for many G protein-coupled receptors.)

T2 sequence (P43220 24-463): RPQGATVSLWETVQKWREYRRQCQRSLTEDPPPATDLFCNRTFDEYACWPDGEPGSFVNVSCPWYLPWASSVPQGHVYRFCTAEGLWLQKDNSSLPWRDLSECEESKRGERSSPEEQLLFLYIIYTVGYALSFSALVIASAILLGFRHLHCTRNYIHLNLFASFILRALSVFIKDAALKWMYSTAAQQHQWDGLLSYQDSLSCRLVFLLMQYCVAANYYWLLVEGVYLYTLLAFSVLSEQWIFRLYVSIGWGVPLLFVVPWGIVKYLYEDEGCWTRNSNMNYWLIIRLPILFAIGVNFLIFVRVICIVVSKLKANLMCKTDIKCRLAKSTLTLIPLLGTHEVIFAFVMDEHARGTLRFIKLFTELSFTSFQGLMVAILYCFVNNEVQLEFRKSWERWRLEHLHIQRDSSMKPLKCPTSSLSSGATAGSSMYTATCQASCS
T1 sequence (P43220 24-463 L260F): as the sequence (P43220 24-463) above, with L237F counted along it

With `Cn1ccc(Cn2c(CN3CCN(c4cccc(OCc5ccc(C#N)cc5F)n4)[C@@H]4CC[C@@H]43)nc3ccc(C(=O)O)cc32)n1` (racemic) [Example 1, rac-2-(((1R,6S)-5-(6-((4-Cyano-2-fluorobenzyl)oxy)pyridin-2-yl)-2,5-diazabicyclo[4.2.0]octan-2-yl)methyl)-1-((1-methyl-1H-pyrazol-3-yl)methyl)-1H-benzo[d]imidazole-6-carboxylic acid], the EC50 on human GLP-1R receptor came to 130 nM; at GLP-1R it was 280 nM.

In the case of `CC(C)(C)OCCn1c(CN2CCN(c3cccc(OCc4ccc(C#N)cc4F)n3)[C@@H]3CC[C@@H]32)nc2ccc(C(=O)O)cc21` (racemic) [Example 10, rac-1-(2-(tert-Butoxy)ethyl)-2-(((1R,6S)-5-(6-((4-cyano-2-fluorobenzyl)oxy)pyridin-2-yl)-2,5-diazabicyclo[4.2.0]octan-2-yl)methyl)-1H-benzo[d]imidazole-6-carboxylic acid], the EC50 at human GLP-1R receptor came to 370 nM. In other words, the sub-micromolar range.

For the molecule `CCCCOCCn1c(CN2CCN(c3cccc(OCc4ccc(C#N)cc4F)n3)[C@@H]3CC[C@@H]32)nc2ccc(C(=O)O)cc21` (racemic) [Example 11, rac-1-(2-Butoxyethyl)-2-(((1R,6S)-5-(6-((4-cyano-2-fluorobenzyl)oxy)pyridin-2-yl)-2,5-diazabicyclo[4.2.0]octan-2-yl)methyl)-1H-benzo[d]imidazole-6-carboxylic acid], the midpoint of the response at human GLP-1R receptor, the EC50, lay at 150 nM.

On to `Cc1cc(Cn2c(CN3CCN(c4cccc(OCc5ccc(C#N)cc5F)n4)[C@@H]4CC[C@@H]43)nc3ccc(C(=O)O)cc32)no1` (racemic) [Example 13, rac-2-(((1R,6S)-5-(6-((4-Cyano-2-fluorobenzyl)oxy)pyridin-2-yl)-2,5-diazabicyclo[4.2.0]octan-2-yl)methyl)-1-((5-methylisoxazol-3-yl)methyl)-1H-benzo[d]imidazole-6-carboxylic acid], for which the values for the EC50 at human GLP-1R receptor and on GLP-1R were 110 nM and 100 nM, respectively.

`Cc1ccnc(Cn2c(CN3CCN(c4cccc(OCc5ccc(C#N)cc5F)n4)[C@@H]4CC[C@@H]43)nc3ccc(C(=O)O)cc32)c1` (racemic) [Example 14, rac-2-(((1R,6S)-5-(6-((4-Cyano-2-fluorobenzyl)oxy)pyridin-2-yl)-2,5-diazabicyclo[4.2.0]octan-2-yl)methyl)-1-((4-methylpyridin-2-yl)methyl)-1H-benzo[d]imidazole-6-carboxylic acid]: the EC50 on human GLP-1R receptor was found to be 400 nM; on GLP-1R, 2800 nM.

`O=C(O)c1ccc2nc(CN3CCN(c4cccc(OCc5ccc(Cl)cc5F)n4)[C@@H]4COC[C@@H]43)n(C[C@@H]3CCO3)c2c1` (racemic) [Example 15, 2-(((4aRS,7aSR)-4-(6-((4-Chloro-2-fluorobenzyl)oxy)pyridin-2-yl)hexahydrofuro[3,4-b]pyrazin-1(2H)-yl)methyl)-1-(((S)-oxetan-2-yl)methyl)-1H-benzo[d]imidazole-6-carboxylic acid]: the half-maximal effective concentration (EC50) at human GLP-1R receptor amounted to 3.3 nM; on GLP-1R it was 14 nM.

For `N#Cc1ccc(COc2cccc(N3CCN(Cc4nc5ccc(C(=O)O)cc5n4C[C@@H]4CCO4)[C@H]4CC[C@H]43)n2)c(F)c1` (single isomer, unassigned) [Example 2a, 2-(((1R*,6S*)-5-(6-((4-Cyano-2-fluorobenzyl)oxy)pyridin-2-yl)-2,5-diazabicyclo[4.2.0]octan-2-yl)methyl)-1-(((S)-oxetan-2-yl)methyl)-1H-benzo[d]imidazole-6-carboxylic acid], the values for the half-maximal effective concentration (EC50) on human GLP-1R receptor and at GLP-1R were 1.2 nM and 4.1 nM, respectively.

Turning to `N#Cc1ccc(COc2cccc(N3CCN(Cc4nc5ccc(C(=O)O)cc5n4C[C@@H]4CCO4)[C@H]4CC[C@H]43)n2)c(F)c1` (single isomer, unassigned) [Example 2b, 2-(((1R*,6S*)-5-(6-((4-Cyano-2-fluorobenzyl)oxy)pyridin-2-yl)-2,5-diazabicyclo[4.2.0]octan-2-yl)methyl)-1-(((S)-oxetan-2-yl)methyl)-1H-benzo[d]imidazole-6-carboxylic acid], the EC50 at human GLP-1R receptor was 17 nM; at GLP-1R it was 32 nM.

Turning to `N#Cc1ccc(COc2cccc(N3CCN(Cc4nc5c(F)cc(C(=O)O)cc5n4C[C@@H]4CCO4)[C@H]4CC[C@@H]43)n2)c(F)c1` (single isomer, unassigned) [Example 3a, 2-(((1R*,6R*)-5-(6-((4-Cyano-2-fluorobenzyl)oxy)pyridin-2-yl)-2,5-diazabicyclo[4.2.0]octan-2-yl)methyl)-4-fluoro-1-(((S)-oxetan-2-yl)methyl)-1H-benzo[d]imidazole-6-carboxylic acid], the EC50 on human GLP-1R receptor was determined as 23 nM; on GLP-1R, 13 nM.

As for `COc1cc(C(=O)O)cc2c1nc(CN1CCN(c3cccc(OCc4ccc(Cl)cc4F)n3)[C@H]3CC[C@@H]31)n2C[C@@H]1CCO1` (single isomer, unassigned) [Example 5a, 2-(((1R*,6R*)-5-(6-((4-Chloro-2-fluorobenzyl)oxy)pyridin-2-yl)-2,5-diazabicyclo[4.2.0]octan-2-yl)methyl)-4-methoxy-1-(((S)-oxetan-2-yl)methyl)-1H-benzo[d]imidazole-6-carboxylic acid], the values for the 50% effective concentration (EC50) at human GLP-1R receptor and on GLP-1R were 6.4 nM and 4 nM, respectively.

`N#Cc1ccc(COc2cccc(N3CCN(Cc4nc5c(Cl)cc(C(=O)O)cc5n4C[C@@H]4CCO4)[C@H]4CC[C@H]43)n2)c(F)c1` (single isomer, unassigned) [Example 6b]: the EC50 on human GLP-1R receptor came to 95 nM; on GLP-1R it was 57 nM.

Turning to `N#Cc1ccc(COc2cccc(N3CCN(Cc4nc5cc(Cl)c(C(=O)O)cc5n4C[C@@H]4CCO4)[C@H]4CC[C@H]43)n2)c(F)c1` (single isomer, unassigned) [Example 7c], the EC50 on human GLP-1R receptor worked out at 250 nM.

The molecule `CCn1cncc1Cn1c(CN2CCN(c3cccc(OCc4ccc(Cl)cc4F)n3)[C@H]3CC[C@@H]32)nc2c(OC)cc(C(=O)O)cc21` (single isomer, unassigned) [Example 12a] yielded a 50% effective concentration (EC50) on human GLP-1R receptor of 2.2 nM. Compared with the last molecule, the EC50 is about 110-fold lower.

In general, EC50 refers to the concentration giving half of the maximal effect.

(Values after patent US20250115612A1, “CERTAIN 2,5-DIAZABICYCLO[4.2.0]OCTANES AND OCTAHYDROFURO[3,4-B]PYRAZINES AS GLP-1 RECEPTOR MODULATORS” (ASTRAZENECA AB, priority 2021, published 2025).)
